Data as given in patent US11713309B2, “Solid forms of Cerdulatinib” (Alexion Pharmaceuticals, Inc., priority 2018, dated 2023).
Structures can show the parent of a compound that is named as a salt.

Legend:
Type in all cases: physicochemical
[1] = Solubility of Compound I Form I in various solvents
[2] = Gravimetric vapor sorption (GVS) hygroscopicity; details: for Crystalline form by XRPD post GVS analysis: exposure to humidity 0 to about 90% RH, about 25° C.
Experimental: Sorption isotherms were obtained using a Hiden Isochema moisture sorption analyser (model IGAsorp), controlled by IGAsorp Systems Software v6.50.48. The sample was maintained at a constant temperature (25° C.) by the instrument controls. The humidity was controlled by mixing streams of dry and wet nitrogen, with a total flow of 250 mL·min^−1. The instrument was verified for relative humidity content by measuring three calibrated Rotronic salt solutions (10-50-88%). The weight change of the sample was monitored as a function of humidity by a microbalance (accuracy+/−0.005 mg). A defined amount of sample was placed in a tared mesh stainless steel basket under ambient conditions. A full experimental cycle consisted of two scans (sorption and desorption) at a constant temperature (25° C.) and 10% RH intervals over a 10-90% range (90 minutes for each humidity level).
The hygroscopicity of the esylate, mesylate, HCl, and sulfate salts/co-crystals of Compound I formed via the first scale up process was analyzed. All hygroscopicity experiments covered a wide range of humidity (0 to about 90% relative humidity) and were performed at about 25° C. to assess behavior.

[3] = Kinetic solubility in FeSSIF; details: for Solubility (mg/mL) 1 h / Solubility (mg/mL) 2 h / Solubility (mg/mL) 4 h / Solubility (mg/mL) 24 h: 37° C.; for Solubility (mg/mL) 1 h: drug loading ~10 mg/mL as freebase; for Final Form: XRPD of residual solids, 24 h (merged cell); for Solubility (mg/mL) 1 h / Final Form / pH 1 h: 1 h; for Solubility (mg/mL) 2 h / Final Form / pH 2 h: 2 h; for Solubility (mg/mL) 4 h / Final Form / pH 4 h: 4 h; for pH 1 h / pH 2 h / pH 4 h / pH 24 h: supernatant
Experimental: (§1) Kinetic solubility testing was conducted as follows: About 40-55 mg material was weighed into a 5-mL EP pipe. 4 mL of water/bio-relevant media (SGF, FaSSIF, or FeSSIF) was added into the corresponding sample pipe (drug loading: ˜10 mg/mL calculated as freebase). The pipes were capped tightly and the material was verified to be in contact with the media. The sample vials were placed on a roller and start rolling at 37° C. (rate: 25 r/min). Samples were taken at 1, 2, 4, 24 h. For each time point, 1.0 mL of suspension was transferred into a 2-mL centrifuge tube and the samples were centrifuged. The supernatant was filtered via 0.45 μm PTFE membrane and solubility and pH were measured. An XRPD test on residual solids was conducted.

[4] = Kinetic solubility in SGF; details: for Solubility (mg/mL) 1 h / Solubility (mg/mL) 2 h / Solubility (mg/mL) 4 h / Solubility (mg/mL) 24 h: SGF, 37° C.; for Solubility (mg/mL) 1 h: drug loading ~10 mg/mL as freebase; for pH 1 h / pH 2 h / pH 4 h / pH 24 h: supernatant, SGF (native pH 1.8)
Experimental: as §1

[5] = Kinetic solubility in water; details: 37° C.; for pH of supernatant: water (native pH 7.6); for Final Form of residual solids (XRPD) / Kinetic solubility: water
Experimental: as §1

[6] = Kinetic solubility in FaSSIF; details: for Solubility (mg/mL) 1 h / Solubility (mg/mL) 2 h / Solubility (mg/mL) 4 h / Solubility (mg/mL) 24 h: FaSSIF, 37° C.; for Solubility (mg/mL) 1 h: drug loading ~10 mg/mL as freebase; for pH 1 h / pH 2 h / pH 4 h / pH 24 h: supernatant, FaSSIF (native pH 6.5)
Experimental: as §1

[7] = 1 h, listed as Isethionate Type A
[8] = 2 h, listed as Isethionate Type A
[9] = 4 h, listed as Isethionate Type A
[10] = 24 h, listed as Isethionate Type A
[11] = 24 h, listed as Mesylate Type A

## CCS(=O)(=O)N1CCN(c2ccc(Nc3ncc(C(N)=O)c(NC4CC4)n3)cc2)CC1 [Compound I Form I, 4-(cyclopropylamino)-2-(4-(4-(ethylsulfonyl)piperazin-1-yl)phenylamino)pyrimidine-5-carboxamide]
[1]; 25 mg/1 mL Acetone
  Solubility of Compound I Form I (Observations): <5 mg
[1]; 25 mg/1 mL Acetonitrile
  Solubility of Compound I Form I (Observations): <5 mg
[1]; 25 mg/1 mL DCM
  Solubility of Compound I Form I (Observations): about 10 mg
[1]; 25 mg/1 mL EtOAc
  Solubility of Compound I Form I (Observations): <5 mg
[1]; 25 mg/1 mL Heptane
  Solubility of Compound I Form I (Observations): <5 mg
[1]; 25 mg/1 mL IPA
  Solubility of Compound I Form I (Observations): <5 mg
[1]; 25 mg/1 mL MeOH
  Solubility of Compound I Form I (Observations): <5 mg
[1]; 25 mg/1 mL TBME
  Solubility of Compound I Form I (Observations): <5 mg
[1]; 25 mg/1 mL THF
  Solubility of Compound I Form I (Observations): <5 mg
[1]; 25 mg/1 mL Toluene
  Solubility of Compound I Form I (Observations): about 10 mg

## CCS(=O)(=O)N1CCN(c2ccc(Nc3ncc(C(N)=O)c(NC4CC4)n3)cc2)CC1 [Compound I esylate Form I, 4-(cyclopropylamino)-2-(4-(4-(ethylsulfonyl)piperazin-1-yl)phenylamino)pyrimidine-5-carboxamide]
[2]; between 0 and about 60% RH, 25° C.
  GVS hygroscopicity / moisture uptake: not subject to moisture uptake
[2]; between about 60% to about 90% RH
  GVS weight uptake: RH; about 5 mg
[2]; dried to about 10% RH
  GVS mass lost relative to the input weight: about 4.6%
[2]
  Crystalline form by XRPD post GVS analysis: loss of crystallinity
[2]; large water uptake about 60 to about 90% RH
  Deliquescence in GVS: deliquescence did not result
[2]; sorption above about 60% RH
  GVS weight change (sudden increase in weight): ~35%

## CCS(=O)(=O)N1CCN(c2ccc(Nc3ncc(C(N)=O)c(NC4CC4)n3)cc2)CC1 [Compound I isethionate Type A, 4-(cyclopropylamino)-2-(4-(4-(ethylsulfonyl)piperazin-1-yl)phenylamino)pyrimidine-5-carboxamide]
[3]; listed as Isethionate Type A
  Solubility (mg/mL) 1 h: 0.0058 mg/mL
  Solubility (mg/mL) 2 h: 0.0053 mg/mL
  Solubility (mg/mL) 4 h: 0.0052 mg/mL
  Solubility (mg/mL) 24 h: 0.0054 mg/mL
  Final Form: Freebase Form II
  pH 1 h: 4.6
  pH 2 h: 4.7
  pH 4 h: 4.7
  pH 24 h: 4.6
[4]; listed as Isethionate Type A
  Solubility (mg/mL) 1 h: 0.077 mg/mL
  Solubility (mg/mL) 2 h: 0.081 mg/mL
  Solubility (mg/mL) 4 h: 0.073 mg/mL
  Solubility (mg/mL) 24 h: 0.069 mg/mL
  pH 1 h: 1.9
  pH 2 h: 1.9
  pH 4 h: 2.1
  pH 24 h: 2.0
[5]; [7]
  pH of supernatant: 2.1
  Kinetic solubility: 1500 µg/mL
[5]; [8]
  pH of supernatant: 2.0
  Kinetic solubility: 1300 µg/mL
[5]; [9]
  pH of supernatant: 2.1
  Kinetic solubility: 1300 µg/mL
[5]; [10]
  pH of supernatant: 2.1
  Kinetic solubility: 1200 µg/mL
[5]; 1 h, 2 h, 4 h, 24 h, listed as Isethionate Type A
  Final Form of residual solids (XRPD): Freebase Form II
[6]; listed as Isethionate Type A
  Solubility (mg/mL) 1 h: 0.020 mg/mL
  Solubility (mg/mL) 2 h: 0.026 mg/mL
  Solubility (mg/mL) 4 h: 0.018 mg/mL
  Solubility (mg/mL) 24 h: 0.015 mg/mL
  pH 1 h: 3.9
  pH 2 h: 3.9
  pH 4 h: 3.9
  pH 24 h: 3.9

## CCS(=O)(=O)N1CCN(c2ccc(Nc3ncc(C(N)=O)c(NC4CC4)n3)cc2)CC1 [Compound I mesylate Form II, 4-(cyclopropylamino)-2-(4-(4-(ethylsulfonyl)piperazin-1-yl)phenylamino)pyrimidine-5-carboxamide]
[2]; 25° C., first scale up material, listed as Comp. I Mesylate Form II
  GVS water absorbed: About 12 mg
[2]; desorption
  GVS total mass lost: about 2%
[2]
  Crystalline form by XRPD post GVS analysis: does not result in a form change
[2]; sorption, increasing RH
  GVS total weight uptake from the starting point: ≤ 1.4%

## CCS(=O)(=O)N1CCN(c2ccc(Nc3ncc(C(N)=O)c(NC4CC4)n3)cc2)CC1 [Compound I mesylate Type A, 4-(cyclopropylamino)-2-(4-(4-(ethylsulfonyl)piperazin-1-yl)phenylamino)pyrimidine-5-carboxamide]
[3]; listed as Mesylate Type A
  Solubility (mg/mL) 1 h: 0.023 mg/mL
  Solubility (mg/mL) 2 h: 0.020 mg/mL
  Solubility (mg/mL) 4 h: 0.0084 mg/mL
  Solubility (mg/mL) 24 h: 0.0083 mg/mL
  Final Form: Freebase Form II
  pH 1 h: 4.7
  pH 2 h: 4.5
  pH 4 h: 4.6
  pH 24 h: 4.6
[4]; listed as Mesylate Type A
  Solubility (mg/mL) 1 h: 0.081 mg/mL
  Solubility (mg/mL) 2 h: 0.096 mg/mL
  Solubility (mg/mL) 4 h: 0.080 mg/mL
  Solubility (mg/mL) 24 h: 0.076 mg/mL
  pH 1 h: 1.9
  pH 2 h: 2.0
  pH 4 h: 2.0
  pH 24 h: 1.9
[5]; 1 h, listed as Mesylate Type A
  pH of supernatant: 1.9
  Kinetic solubility: 1400 µg/mL
[5]; 2 h, listed as Mesylate Type A
  pH of supernatant: 1.9
  Kinetic solubility: 1300 µg/mL
[5]; 4 h, listed as Mesylate Type A
  pH of supernatant: 2.2
  Kinetic solubility: 1300 µg/mL
[5]; [11]
  pH of supernatant: 2.0
  Kinetic solubility: 1300 µg/mL
[5]; 1 h, 2 h, 4 h, 24 h, listed as Mesylate Type A
  Final Form of residual solids (XRPD): Freebase Form II
[6]; listed as Mesylate Type A
  Solubility (mg/mL) 1 h: 0.062 mg/mL
  Solubility (mg/mL) 2 h: 0.055 mg/mL
  Solubility (mg/mL) 4 h: 0.039 mg/mL
  Solubility (mg/mL) 24 h: 0.020 mg/mL
  pH 1 h: 4.1
  pH 2 h: 3.7
  pH 4 h: 3.6
  pH 24 h: 4.0
